Measurements taken from patent US12486301B2, “8-fluoro-4-alkylumbelliferyl α-D-glucopyranoside, biological sterilization indicator including the same and its use in a method of determining efficacy of a sterilization process” (Solventum Intellectual Properties Company, priority 2019, dated 2025).
Values belong to the molecule of their own block, whether it stands above or below them.

Assays:
[1] = Enzyme substrate degradation in culture media at various temperatures (fluorescence); assay type: physicochemical; details: 0.3 mg/mL; for MEASURED FLUORESCENCE, RFU 70° C. 15 min: 70° C. dry heat block 15 min; for MEASURED FLUORESCENCE, RFU 100° C. 15 + 15 min: 100° C. 15 min, second time 15 min; for MEASURED FLUORESCENCE, RFU 100° C. 15 min: 100° C. heat block 15 min; for MEASURED FLUORESCENCE, RFU RT 15 min: room temperature (24.5° C.)
Method: Culture media was prepared by dissolving 5 g/L peptone C (BD 211921) and 12 g/L phytone peptone (BD BBL 211906) in deionized water. The pH was adjusted with 1 N NaOH or 0.1 N HCl, the media brought to volume, and then filter sterilized with a 0.22 micron PES filter. Stock solutions ([…]) of 8′-fluoro-4′-methylumbelliferyl-α-D-glucopyranoside, 6′-fluoro-4′-methylumbelliferyl-α-D-glucopyranoside, and 4-methylumbelliferyl-α-D-glucopyranoside were prepared in DMSO. The aforementioned substrates were added to culture media at a final concentration of 0.1 mg/ml and media were then 0.22 μm filter sterilized.
(§1) One milliliter of filter-sterilized culture media (pH 6) containing 0.3 mg/ml of 8′-fluoro-4′-methylumbelliferyl-[…]-D-glucopyranoside substrate was transferred to three 1.5 ml microcentrifuge tubes. One of the 1.5 ml tubes was kept at room temperature (24.5° C.). The second tube was placed in a 70° C. dry heat block for 15 min and the third tube was placed in a 100° C. heat block for 15 min. Tubes were kept at room temperature for 30 min following heat exposure, briefly vortexed and centrifuged to collect liquid. One hundred microliters of culture media with substrate from each of the tubes was transferred to two wells (100 microliters per well) of a black 96-well microtiter plate with (NUNC #165301, Thermo Fisher Scientific). The top of the plate was covered with an optically clear sealing film (product #4311971, Applied Biosystems Corporation). Fluorescence readings (360 nm excitation/455 nm emission at 50% gain) were taken from the top of the plate.
(§2) The tube exposed to 100° C. (with 800 ul of remaining media with substrate) was exposed for a second time to 100° C. for 15 min in a dry heat block. One hundred microliters of culture media with substrate from the tube was transferred to two wells (100 microliters per well) of a black 96-well microtiter plate with (NUNC #165301, Thermo Fisher Scientific). The top of the plate was covered with an optically clear sealing film (product #4311971, Applied Biosystems Corporation). Fluorescence readings (360 nm excitation/455 nm emission at 50% gain) were taken from the top of the plate. In Table 9, the mean fluorescence values detected (RFU) for each of the heating conditions are reported.
as §1, with “7)” for “6)”
as §2, with “10,” for “9,”, “reported. […]” for “reported.”

[2] = test system: Geobacillus stearothermophilus spores (ATCC 7953); assay: Fluorescence from enzyme substrates incubated with Geobacillus stearothermophilus spores in culture media; assay type: cell-based; details: substrate 0.1 mg/mL, 60° C.
[3] = pH 6 culture media, no spores, 360 nm excitation/455 nm emission
[4] = pH 6 culture media, 5×10^3 spores
[5] = pH 6 culture media, 5×10^6 spores
[6] = pH 7 culture media, 5×10^3 spores
[7] = pH 7 culture media, 5×10^6 spores
[8] = pH 8 culture media, 5×10^3 spores
[9] = pH 8 culture media, 5×10^6 spores
[10] = pH 9 culture media, 5×10^3 spores
[11] = pH 9 culture media, 5×10^6 spores

- MEASURED FLUORESCENCE, RFU 70° C. 15 min ([1]; pH 6 culture media): 799.5 RFU
- MEASURED FLUORESCENCE, RFU 100° C. 15 + 15 min ([1]; pH 6 culture media): 1114.5 RFU
- MEASURED FLUORESCENCE, RFU 100° C. 15 min ([1]; pH 6 culture media): 957.5 RFU
- MEASURED FLUORESCENCE, RFU RT 15 min [1, 3]: 751.5 RFU
- MEASURED FLUORESCENCE, RFU 70° C. 15 min ([1]; pH 7 culture media): 759.5 RFU
- MEASURED FLUORESCENCE, RFU 100° C. 15 + 15 min ([1]; pH 7 culture media): 1529 RFU
- MEASURED FLUORESCENCE, RFU 100° C. 15 min ([1]; pH 7 culture media): 1195 RFU
- MEASURED FLUORESCENCE, RFU RT 15 min ([1]; pH 7 culture media): 740.5 RFU
- MEASURED FLUORESCENCE, RFU 70° C. 15 min ([1]; pH 8 culture media): 832 RFU
- MEASURED FLUORESCENCE, RFU 100° C. 15 + 15 min ([1]; pH 8 culture media): 1543 RFU
- MEASURED FLUORESCENCE, RFU 100° C. 15 min ([1]; pH 8 culture media): 1274 RFU
- MEASURED FLUORESCENCE, RFU RT 15 min ([1]; pH 8 culture media): 774 RFU
- MEASURED FLUORESCENCE, RFU 70° C. 15 min ([1]; pH 9 culture media): 905.5 RFU
- MEASURED FLUORESCENCE, RFU 100° C. 15 + 15 min ([1]; pH 9 culture media): 1770.5 RFU
- MEASURED FLUORESCENCE, RFU 100° C. 15 min ([1]; pH 9 culture media): 1343.5 RFU
- MEASURED FLUORESCENCE, RFU RT 15 min ([1]; pH 9 culture media): 811.5 RFU
Compound: Cc1cc(=O)oc2c(F)c(O[C@H]3O[C@H](CO)[C@@H](O)[C@H](O)[C@H]3O)ccc12 [Example 1, 8′-Fluoro-4′-methylumbelliferyl […]-D-glucopyranoside]
- MEASURED FLUORESCENCE, RFU +5 min [2, 4]: 1212 RFU
- MEASURED FLUORESCENCE, RFU +30 min [2, 4]: 5600 RFU
- MEASURED FLUORESCENCE, RFU 10 sec [2, 5]: 30514 RFU
- MEASURED FLUORESCENCE, RFU +5 min [2, 5]: 34348 RFU
- MEASURED FLUORESCENCE, RFU +10 min [2, 5]: 32547 RFU
- MEASURED FLUORESCENCE, RFU +30 min [2, 5]: 30518 RFU
- MEASURED FLUORESCENCE, RFU 10 sec [2, 6]: 886 RFU
- MEASURED FLUORESCENCE, RFU 10 sec [2, 7]: 49649 RFU
- MEASURED FLUORESCENCE, RFU +5 min [2, 7]: 54906 RFU
- MEASURED FLUORESCENCE, RFU +10 min [2, 7]: 52619 RFU
- MEASURED FLUORESCENCE, RFU +30 min [2, 7]: 49458 RFU
- MEASURED FLUORESCENCE, RFU 10 sec [2, 8]: 729 RFU
- MEASURED FLUORESCENCE, RFU +5 min [2, 8]: 971 RFU
- MEASURED FLUORESCENCE, RFU +10 min [2, 8]: 1655 RFU
- MEASURED FLUORESCENCE, RFU 10 sec [2, 9]: 39958 RFU
- MEASURED FLUORESCENCE, RFU +5 min [2, 9]: 58746 RFU
- MEASURED FLUORESCENCE, RFU +10 min [2, 9]: 58909 RFU
- MEASURED FLUORESCENCE, RFU +30 min [2, 9]: 55069 RFU
- MEASURED FLUORESCENCE, RFU 10 sec [2, 10]: 655 RFU
- MEASURED FLUORESCENCE, RFU +5 min [2, 10]: 663 RFU
- MEASURED FLUORESCENCE, RFU +10 min [2, 10]: 831 RFU
- MEASURED FLUORESCENCE, RFU +30 min [2, 10]: 2910 RFU
- MEASURED FLUORESCENCE, RFU 10 sec [2, 11]: 15513 RFU
- MEASURED FLUORESCENCE, RFU +5 min [2, 11]: 39862 RFU
- MEASURED FLUORESCENCE, RFU +10 min [2, 11]: 55056 RFU
- MEASURED FLUORESCENCE, RFU +30 min [2, 11]: 52276 RFU

- MEASURED FLUORESCENCE, RFU 70° C. 15 min ([1]; pH 6 culture media): 932.5 RFU
- MEASURED FLUORESCENCE, RFU 100° C. 15 + 15 min ([1]; pH 6 culture media): 2005 RFU
- MEASURED FLUORESCENCE, RFU 100° C. 15 min ([1]; pH 6 culture media): 1486.5 RFU
- MEASURED FLUORESCENCE, RFU RT 15 min [1, 3]: 897.5 RFU
- MEASURED FLUORESCENCE, RFU 70° C. 15 min ([1]; pH 7 culture media): 1012 RFU
- MEASURED FLUORESCENCE, RFU 100° C. 15 + 15 min ([1]; pH 7 culture media): 2654.5 RFU
- MEASURED FLUORESCENCE, RFU 100° C. 15 min ([1]; pH 7 culture media): 1690.5 RFU
- MEASURED FLUORESCENCE, RFU RT 15 min ([1]; pH 7 culture media): 924.5 RFU
- MEASURED FLUORESCENCE, RFU 70° C. 15 min ([1]; pH 8 culture media): 1079.5 RFU
- MEASURED FLUORESCENCE, RFU 100° C. 15 + 15 min ([1]; pH 8 culture media): 3160.5 RFU
- MEASURED FLUORESCENCE, RFU 100° C. 15 min ([1]; pH 8 culture media): 2121.5 RFU
- MEASURED FLUORESCENCE, RFU RT 15 min ([1]; pH 8 culture media): 983 RFU
- MEASURED FLUORESCENCE, RFU 70° C. 15 min ([1]; pH 9 culture media): 1218 RFU
- MEASURED FLUORESCENCE, RFU 100° C. 15 + 15 min ([1]; pH 9 culture media): 3964 RFU
- MEASURED FLUORESCENCE, RFU 100° C. 15 min ([1]; pH 9 culture media): 2728 RFU
- MEASURED FLUORESCENCE, RFU RT 15 min ([1]; pH 9 culture media): 994.5 RFU
Compound: Cc1cc(=O)oc2cc(O[C@H]3O[C@H](CO)[C@@H](O)[C@H](O)[C@H]3O)c(F)cc12 [Example 6F-MUG, 6′-Fluoro-4′-methylumbelliferyl […]-D-glucopyranoside]
- MEASURED FLUORESCENCE, RFU +5 min [2, 4]: 1200 RFU
- MEASURED FLUORESCENCE, RFU +30 min [2, 4]: 6663 RFU
- MEASURED FLUORESCENCE, RFU 10 sec [2, 5]: 53357 RFU
- MEASURED FLUORESCENCE, RFU +5 min [2, 5]: 60972 RFU
- MEASURED FLUORESCENCE, RFU +10 min [2, 5]: 58039 RFU
- MEASURED FLUORESCENCE, RFU +30 min [2, 5]: 55966 RFU
- MEASURED FLUORESCENCE, RFU 10 sec [2, 6]: 879 RFU
- MEASURED FLUORESCENCE, RFU 10 sec [2, 7]: 67489 RFU
- MEASURED FLUORESCENCE, RFU +5 min [2, 7]: 80834 RFU
- MEASURED FLUORESCENCE, RFU +10 min [2, 7]: 78888 RFU
- MEASURED FLUORESCENCE, RFU +30 min [2, 7]: 75469 RFU
- MEASURED FLUORESCENCE, RFU 10 sec [2, 8]: 825 RFU
- MEASURED FLUORESCENCE, RFU +5 min [2, 8]: 878 RFU
- MEASURED FLUORESCENCE, RFU +10 min [2, 8]: 1204 RFU
- MEASURED FLUORESCENCE, RFU 10 sec [2, 9]: 49967 RFU
- MEASURED FLUORESCENCE, RFU +5 min [2, 9]: 81623 RFU
- MEASURED FLUORESCENCE, RFU +10 min [2, 9]: 85491 RFU
- MEASURED FLUORESCENCE, RFU +30 min [2, 9]: 78890 RFU
- MEASURED FLUORESCENCE, RFU 10 sec [2, 10]: 870 RFU
- MEASURED FLUORESCENCE, RFU +5 min [2, 10]: 833 RFU
- MEASURED FLUORESCENCE, RFU +10 min [2, 10]: 892 RFU
- MEASURED FLUORESCENCE, RFU +30 min [2, 10]: 2376 RFU
- MEASURED FLUORESCENCE, RFU 10 sec [2, 11]: 22519 RFU
- MEASURED FLUORESCENCE, RFU +5 min [2, 11]: 56806 RFU
- MEASURED FLUORESCENCE, RFU +10 min [2, 11]: 78179 RFU
- MEASURED FLUORESCENCE, RFU +30 min [2, 11]: 76196 RFU
